In patent US20240197738A1, “COMPOUND 7AI IN TREATING EWING SARCOMA BY INHIBITING OTUD7A” (The University of North Carolina at Chapel Hill, priority 2021, published 2024):

How the values were obtained:
HUVEC cells = test: Cell viability (MTT) assay, HUVEC; type: cell-based, human; conditions: 72 hrs (FIG. 5S)
Procedure: (§1) 2,000 indicated cells were seeded in each well of 96-well plates for MTT assays to monitor cell viability at indicated time periods using a method adapted from https://www.thermofisher.com/us/en/home/references/protocols/cell-culture/mtt-assay-protocol/vybrant-mtt-cell-proliferation-assay-kit.html. Briefly, at indicated time points post-cell seeding, 10 μL MTT solution was added into each well and incubated in the culture incubator (37° C. with 5% CO2) for 4 hrs. Then medium was removed and 100 μL DMSO was added into each well to dissolve the formazan crystal and incubated for 10 min at 37° C. After thorough mixing, absorbance at 540 nm was measured using the BioTek Cytation 5 Cell Imaging reader.

EWS-ERG = test: Immunoblot of EWS-ERG protein levels; type: cell-based, human; conditions: A673 cells with EWS-ERG replacing EWS-FLI1
Procedure: (§2) Cells were lysed in EBC buffer (50 mM Tris pH 7.5, 120 mM NaCl, 0.5% NP-40) or Triton X-100 buffer (50 mM Tris pH 7.5, 150 mM NaCl, 1% Triton X-100) supplemented with protease inhibitors (Complete Mini, Roche) and phosphatase inhibitors (phosphatase inhibitor cocktail set I and II, Calbiochem). The protein concentrations of whole cell lysates were measured by NanoDrop OneC using the Bio-Rad protein assay reagent as described previously. Equal amounts of whole cell lysates were resolved by SDS-PAGE and immunoblotted with indicated antibodies. For immunoprecipitations analysis, unless specified, 1000 μg lysates were incubated with the indicated antibody (1-2 μg) for 3-4 hr at 4° C. followed by 1 hr incubation with 10 μL Protein A magnetic beads (New England Biolabs). Or 1000 μg lysates containing tagged molecules were incubated with agarose beads coupled antibodies for the specific tag for 3-4 hr at 4° C. For endogenous IPs, incubation of cell lysates with antibodies was extended to overnight. The recovered immuno-complexes were washed five times with NETN buffer (20 mM Tris, pH 8.0, 100 mM NaCl, 1 mM EDTA and 0.5% NP-40) before being resolved by SDS-PAGE and immunoblotted with indicated antibodies.

A673^3A cells = test: Cell viability (MTT) assay, A673^3A knockin; type: cell-based, human; conditions: 3-day treatment (FIG. 5I)
Procedure: Parental A673 cells were splitted into 24-well plates and transfected with sgRNA against EWS-FLI1 together with EWS-FLI1-3A-ssoDNA following protocols as described. 1-day post-transfection, cells were selected with 1 μg/ml puromycin for 3 days. Surviving cells were counted and each single cell was seeded into 96-well plates. Each single clone grown up in 96-well plates was amplified and one copy was used for genomic DNA extraction, followed by PCR and BpmI digestion to screen for potential knockin clones. BpmI negative clones are selected and sequenced to verify the knockin at the DNA level. 3 isogenic knockin clones were selected and saved.
as §1

[1] = molecular target: T1, His-tagged OTUD7A OTU domain (aa183-449) (Homo sapiens, UniProt Q8TE49); test: Isothermal titration calorimetry (ITC) of 7Ai with OTUD7A OTU domain; conditions: bacterially produced His-tagged OTUD7A OTU domain (aa183-449), read-out: binding affinity of 7Ai in vitro (ITC)
T1 construct: the bacterially produced His-tagged OTUD7A OTU domain (aa183-449) was purified; made in house; host or cells: E. coli BL21 (pET28a vector)
T1 sequence (Q8TE49 183-449): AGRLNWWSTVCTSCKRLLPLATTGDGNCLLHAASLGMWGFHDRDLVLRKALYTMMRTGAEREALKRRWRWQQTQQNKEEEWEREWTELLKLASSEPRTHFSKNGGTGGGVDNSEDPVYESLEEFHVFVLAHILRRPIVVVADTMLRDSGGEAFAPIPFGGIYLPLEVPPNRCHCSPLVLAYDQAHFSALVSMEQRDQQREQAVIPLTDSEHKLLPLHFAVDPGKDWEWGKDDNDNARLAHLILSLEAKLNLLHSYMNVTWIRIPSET
Procedure: ITC measurements were performed using a MicroCal auto-iTC200 calorimeter (MicroCal, LLC) as described previously. Briefly, His-tagged OTU domain of OTUD7A proteins were purified using BL21 strain upon induced by 0.3 mM IPTG when OD600 around 0.6 overnight at 16° C. Then purified human His-tagged OTU domain of OTUD7A was dialyzed against 50 mM HEPES buffer (pH 7.2) with 100 mM NaCl for overnight at 4° C. The concentration of the protein was determined by band intensity in a gel-cod staining SDS-PAGE gel. The ITC assay was carried out at 37 °C. The dialyzed His-OTUD7A-OTU proteins were diluted to 40 μM in the dialysis buffer containing 4% DMSO. Then, 400 μM 7Ai, dissolved in the same dialysis buffer with 4% DMSO (50 mM HEPES buffer (pH 7.2) with 100 mM NaCl) was injected into 0.4 mL of His-OTUD7A-OTU protein in the chamber for every 180 s. The dissociation constants and thermodynamic parameters were determined by using the embedded software package Origin7 (Microcal).

[2] = molecular target: OTUD7A binding to EWS-FLI1 (Homo sapiens, UniProt Q8TE49); test: OTUD7A binding to EWS-FLI1 in cells; type: cell-based
OTUD7A binding to EWS-FLI1, sequence (Q8TE49 whole entry): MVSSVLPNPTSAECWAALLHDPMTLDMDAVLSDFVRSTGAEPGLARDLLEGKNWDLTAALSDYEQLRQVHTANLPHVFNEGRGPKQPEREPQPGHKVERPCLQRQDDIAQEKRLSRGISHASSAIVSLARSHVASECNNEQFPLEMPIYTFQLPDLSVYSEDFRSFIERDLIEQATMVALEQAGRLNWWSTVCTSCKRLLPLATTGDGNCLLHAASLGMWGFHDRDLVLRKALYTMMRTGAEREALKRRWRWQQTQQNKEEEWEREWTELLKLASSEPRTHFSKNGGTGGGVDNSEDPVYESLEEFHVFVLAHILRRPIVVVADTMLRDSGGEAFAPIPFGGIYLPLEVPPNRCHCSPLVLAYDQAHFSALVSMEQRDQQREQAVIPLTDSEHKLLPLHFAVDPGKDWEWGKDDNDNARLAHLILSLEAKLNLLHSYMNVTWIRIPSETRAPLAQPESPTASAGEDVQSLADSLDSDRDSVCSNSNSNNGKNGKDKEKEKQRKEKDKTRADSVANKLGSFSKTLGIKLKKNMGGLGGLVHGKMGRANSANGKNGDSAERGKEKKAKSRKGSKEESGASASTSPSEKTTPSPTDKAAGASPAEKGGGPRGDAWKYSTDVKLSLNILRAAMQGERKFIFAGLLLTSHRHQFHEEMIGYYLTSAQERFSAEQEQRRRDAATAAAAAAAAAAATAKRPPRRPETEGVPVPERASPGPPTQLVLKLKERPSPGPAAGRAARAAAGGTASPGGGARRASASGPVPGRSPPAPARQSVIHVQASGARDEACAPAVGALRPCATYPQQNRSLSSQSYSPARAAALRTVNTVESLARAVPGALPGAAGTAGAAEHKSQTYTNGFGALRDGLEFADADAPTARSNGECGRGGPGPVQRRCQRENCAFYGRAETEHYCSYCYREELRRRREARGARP
Procedure: as §2

[3] = tested on: EWS-FLI1 target genes (NKX2.2, PSPH, LOX, TGFBR2); test: RT-PCR of EWS-FLI1 downstream target genes; type: cell-based, human
Procedure: Cells were isolated by dissociation with 0.05% Trypsin, followed by media quenching. The cells were spun down at 300×rcf for 5 minutes. The media was aspirated, the pellet was suspended with 1×PBS, and then the cells were spun down again. The PBS was aspirated. RNA extraction was performed with an RNA extraction kit (BioBasic BS584). The final elution step was done with 50 μL of RNAse-free water. The […] with the NanoDrop OneC (Thermo Fisher Scientific). Three biological replicates were performed for RNA extraction. Quartile analysis was done to exclude outliers and significance was determined by one-way ANOVA tests.

OTUD7A = molecular target: T2, OTUD7A (Homo sapiens, UniProt Q8TE49); test: Immunoblot of OTUD7A protein levels in Ewing cells; type: cell-based; conditions: A673 and SK-N-MC cells, 10 μM, 12 hrs
T2 construct: endogenous in cells; host or cells: A673 and SK-N-MC
T2 sequence (Q8TE49 whole entry): as above
Procedure: as §2
Each compound was dissolved in DMSO with a concentration of 10 mM. […]

[4] = tested on: foreskin fibroblast (FF) cells; test: Cell viability (MTT) assay, foreskin fibroblast; type: cell-based, human; conditions: 72 hrs (FIG. 5S)
Procedure: as §1

A673 cells = test: 2D colony formation assay, A673; type: cell-based, human; conditions: A673, 2-week treatment
Procedure: Indicated cells were seeded into 6-well plates (300 or 600 cells/well) or 6 cm dishes (500 or 1,000 cells/dish) and cultured in 37° C. incubator with 5% C02 for ˜14 days (as indicated in figure legends) until formation of visible colonies. Colonies were washed with 1×PBS and fixed with 10% acetic acid/10% methanol for 30 min, stained with 20% acidic acid/10% Methanol with 0.1% crystal violet until colonies were visibly stained. Colonies were then washed by tap water and air-dried. Colony numbers were manually counted. At least two independent experiments were performed to generate the error bars.

- EWS-ERG protein levels (EWS-ERG): reduced EWS-ERG protein levels
- Kd [1]: ~1100 nM
- OTUD7A protein levels (OTUD7A): without affecting OTUD7A protein levels
Compound: Cn1nccc1-c1cc(-c2ccnn2C)n2nc(C(=O)Nc3cnn(Cc4c(Cl)cccc4Cl)c3)cc2n1 [7Ai]
- proliferation (cell viability) (HUVEC cells): neglectable effects
- proliferation (cell viability) (A673^3A cells): not observed
- OTUD7A binding to EWS-FLI1 [2]: did not interfere with OTUD7A binding to EWS-FLI1
- transcription of EWS-FLI1 target genes NKX2.2 and PSPH ([3]; A673 cells (FIGS. 5K-5L)): reduced transcription of EWS-FLI1 target genes
- transcription of genes negatively regulated by EWS-FLI1 (LOX and TGFBR2) ([3]; A673 cells (FIGS. 5M-5N)): increased transcription of genes negatively regulated by EWS-FLI1
- proliferation (cell viability) [4]: neglectable effects
- colony formation ability (A673 cells): reduced colony formation ability
